Tests used:
Format in all cases: in vivo
[1] = test system: Zymoseptoria tritici; test: Leaf blotch of wheat (SEPTTR) disease control on wheat seedlings; details: low volume application, 125.1 g/H; for SEPTTR 1DP disease control rating, LV activity at 125.1 g/H: 1 day protectant; for SEPTTR 3DC disease control rating, LV activity at 125.1 g/H: 3 day curative
[2] = test system: Cercospora beticola; test: Leaf spot of sugar beets (CERCBE) disease control; details: 100 ppm; 1 Day Protectant; sugar beet
Protocol: All fungicides were evaluated using the aforementioned method for their activity vs. all target diseases, unless stated otherwise. Wheat leaf blotch and brown rust activity were also evaluated using track spray applications, in which case the fungicides were formulated as EC formulations, containing 0.1% Trycol 5941 in the spray solutions. Wheat plants (variety Yuma) were grown from seed in a greenhouse in 50% mineral soil/50% soil-less Metro mix until the first leaf was fully emerged, with 7-10 seedlings per pot. These plants were inoculated with an aqueous spore suspension of Zymoseptoria tritici either prior to or after fungicide treatments. After inoculation the plants were kept in 100% relative humidity (one day in a dark dew chamber followed by two to three days in a lighted dew chamber at 20° C.) to permit spores to germinate and infect the leaf. The plants were then transferred to a greenhouse set at 20° C. for disease to develop. When disease symptoms were fully expressed on the 1st leaves of untreated plants, infection levels were assessed on a scale of 0 to 100 percent disease severity. Percent disease control was calculated using the ratio of disease severity on treated plants relative to untreated plants. Example F: Evaluation of Fungicidal Activity: Leaf Spot of Sugar Beets (Cercospora beticola; Bayer Code CERCBE) Sugar beet plants (variety HH88) were grown in soil-less Metro mix and trimmed regularly to maintain a uniform plant size prior to test. Plants were inoculated with a spore suspension 24 hr after fungicide treatments. Inoculated plants were kept in a dew chamber at 22° C. for 48 hr then incubated in a greenhouse set at 24° C. under a clear plastic hood with bottom ventilation until disease symptoms were fully expressed. Fungicide formulation, application and disease assessment on the sprayed leaves followed the procedures as described in the Example A.

[3] = test system: Phakopsora pachyrhizi; test: Asian soybean rust (PHAKPA) disease control; parameters: key: A: > 80; B: ≤ 80; C: Not Tested; D: No Activity Observed in the Reported Assay; details: 25 ppm; for PHAKPA disease control, 1DP: 1 Day Protectant; for PHAKPA disease control, 3DC: 3 Day Curative
[4] = test system: Alternaria solani; test: Tomato early blight (ALTESO) disease control; parameters: key: A: > 80; B: ≤ 80; C: Not Tested; D: No Activity Observed in the Reported Assay; details: 100 ppm, 1 Day Protectant
Protocol: All fungicides were evaluated using the aforementioned method for their activity vs. all target diseases, unless stated otherwise. Wheat leaf blotch and brown rust activity were also evaluated using track spray applications, in which case the fungicides were formulated as EC formulations, containing 0.1% Trycol 5941 in the spray solutions. Wheat plants (variety Yuma) were grown from seed in a greenhouse in 50% mineral soil/50% soil-less Metro mix until the first leaf was fully emerged, with 7-10 seedlings per pot. These plants were inoculated with an aqueous spore suspension of Zymoseptoria tritici either prior to or after fungicide treatments. After inoculation the plants were kept in 100% relative humidity (one day in a dark dew chamber followed by two to three days in a lighted dew chamber at 20° C.) to permit spores to germinate and infect the leaf. The plants were then transferred to a greenhouse set at 20° C. for disease to develop. When disease symptoms were fully expressed on the 1st leaves of untreated plants, infection levels were assessed on a scale of 0 to 100 percent disease severity. Percent disease control was calculated using the ratio of disease severity on treated plants relative to untreated plants. Example J: Evaluation of Fungicidal Activity: Tomato Early Blight (Alternaria solani; Bayer Code […]) Tomato plants (variety Outdoor Girl) were propagated in soil-less Metro mix, with each pot having one plant, and used when 12 to 14 days old. Test plants were inoculated with an aqueous spore suspension of Alternaria solani 24 hr after fungicide treatments. After inoculation the plants were kept in a dew room at 22° C. with 100% relative humidity for 48 h to permit spores to germinate and infect the leaf. The plants were then transferred to a growth room at 22° C. for disease to develop. Fungicide formulation, application and disease assessment on the sprayed leaves followed the procedures as described in the Example A.

| SMILES | SEPTTR 1DP, LV activity at 125.1 g/H (% Control rating) ([1]; 1 Day Protectant) | SEPTTR 3DC, LV activity at 125.1 g/H (% Control rating) ([1]; 3 Day Curative) | CERCBE disease control, 1DP [2] | PHAKPA disease control, 1DP [3] | PHAKPA disease control, 3DC [3] | ALTESO disease control, 1DP [4] | SEPTTR 1DP disease control rating, LV activity at 125.1 g/H [1] | SEPTTR 3DC disease control rating, LV activity at 125.1 g/H [1] | LV activity at 125.1 g/H SEPTTR 1DP (disease control rating) ([1]; 1 Day Protectant, wheat leaf blotch) | LV activity at 125.1 g/H SEPTTR 3DC (disease control rating) ([1]; 3 Day Curative, wheat leaf blotch) |
| --- | --- | --- | --- | --- | --- | --- | --- | --- | --- | --- |
| COc1ccnc(C(=O)N[C@H](C)C(=O)O[C@H](C)[C@H](Oc2ccccc2)C(C)C)c1OCOC(C)=O [Cmpd 560] | B (≤ 80) | B (≤ 80) | B (≤ 80) | B (≤ 80) | D | B (≤ 80) |  |  |  |  |
| COc1ccnc(C(=O)N[C@@H](C)C(=O)O[C@@H](C)[C@H](Oc2cccc(Cl)c2)C(C)C)c1OC(C)=O [Cmpd 566] | B (≤ 80) | A (> 80) | B (≤ 80) | A (> 80) | B (≤ 80) | B (≤ 80) |  |  |  |  |
| COc1ccnc(C(=O)N[C@@H](C)C(=O)O[C@@H](C)[C@H](Oc2cccc(F)c2)c2ccccc2)c1OCOC(C)=O [Cmpd 574] | A (> 80) | A (> 80) | A (> 80) | A (> 80) | B (≤ 80) | B (≤ 80) |  |  |  |  |
| CCC(CC)[C@@H](Oc1ccc(F)cc1)[C@H](C)OC(=O)[C@H](C)NC(=O)c1nccc(OC)c1OCOC(C)=O [Cmpd 587] | A (> 80) | A (> 80) | A (> 80) | A (> 80) | B (≤ 80) | D |  |  |  |  |
| COc1ccnc(C(=O)N[C@@H](C)C(=O)O[C@@H](C)[C@H](Oc2cc(F)cc(Cl)c2)C(C)C)c1OCOC(C)=O [Cmpd 617] | A (> 80) | A (> 80) | B (≤ 80) | A (> 80) | B (≤ 80) | D |  |  |  |  |
| COc1ccnc(C(=O)N[C@@H](C)C(=O)O[C@@H](C)[C@H](Oc2cccc(Cl)c2)c2ccccc2)c1OCOC(C)=O [Cmpd 637] | A (> 80) | A (> 80) | B (≤ 80) | A (> 80) | B (≤ 80) | D |  |  |  |  |
| COc1ccnc(C(=O)N[C@@H](C)C(=O)O[C@@H](C)[C@H](Oc2ccccc2Cl)c2ccccc2)c1OC(C)=O [Cmpd 640] | A (> 80) | A (> 80) | A (> 80) | B (≤ 80) | B (≤ 80) | B (≤ 80) |  |  |  |  |
| COc1ccnc(C(=O)N[C@@H](C)C(=O)O[C@@H](C)[C@H](Oc2cc(F)cc(Cl)c2)c2ccccc2)c1OC(C)=O [Cmpd 642] | A (> 80) | A (> 80) | A (> 80) | B (≤ 80) | B (≤ 80) | D |  |  |  |  |
| CCC(C)C(Oc1ccccc1)C(C)OC(=O)C(C)NC(=O)c1nccc(OC)c1OC(C)=O (stereo not drawn) [Cmpd 691] |  |  | B (≤ 80) | A (> 80) | B (≤ 80) | D | A (> 80) | A (> 80) |  |  |
| CCC(C)C(Oc1ccccc1)C(C)OC(=O)C(C)NC(=O)c1nccc(OC)c1OCOC(C)=O (stereo not drawn) [Cmpd 692] |  |  | A (> 80) | A (> 80) | B (≤ 80) | B (≤ 80) | A (> 80) | A (> 80) |  |  |
| C=CC(C)C(Oc1ccccc1)C(C)OC(=O)C(C)NC(=O)c1nccc(OC)c1OCOC(C)=O (stereo not drawn) [Cmpd 694] |  |  | A (> 80) | A (> 80) | B (≤ 80) | B (≤ 80) | B (≤ 80) | A (> 80) |  |  |
| CCC[C@@H](Oc1ccccc1)[C@H](C)OC(=O)[C@H](C)NC(=O)c1nccc(OC)c1OCOC(C)=O [Cmpd 699] |  |  | A (> 80) | A (> 80) | B (≤ 80) | B (≤ 80) | A (> 80) | A (> 80) |  |  |
| COc1ccnc(C(=O)N[C@@H](C)C(=O)O[C@@H](C)[C@@H](CC(C)C)Oc2ccccc2)c1OCOC(=O)C(C)C [Cmpd 1101] |  |  | A (> 80) | A (> 80) | A (> 80) | D |  |  | A (> 80) | A (> 80) |

Source: patent publication US20180000085A1, “USE OF PICOLINAMIDE COMPOUNDS WITH FUNGICIDAL ACTIVITY” (DOW AGROSCIENCES LLC, priority 2014, published 2018)
